# Biological target: T1, recombinant human ULK1 protein (1-649) (Homo sapiens, UniProt O75385)
# T1 construct: recombinant human ULK1 protein (1-649, SignalChem #U01-11G); purchased SignalChem U01-11G
# T1 sequence (O75385 1-649): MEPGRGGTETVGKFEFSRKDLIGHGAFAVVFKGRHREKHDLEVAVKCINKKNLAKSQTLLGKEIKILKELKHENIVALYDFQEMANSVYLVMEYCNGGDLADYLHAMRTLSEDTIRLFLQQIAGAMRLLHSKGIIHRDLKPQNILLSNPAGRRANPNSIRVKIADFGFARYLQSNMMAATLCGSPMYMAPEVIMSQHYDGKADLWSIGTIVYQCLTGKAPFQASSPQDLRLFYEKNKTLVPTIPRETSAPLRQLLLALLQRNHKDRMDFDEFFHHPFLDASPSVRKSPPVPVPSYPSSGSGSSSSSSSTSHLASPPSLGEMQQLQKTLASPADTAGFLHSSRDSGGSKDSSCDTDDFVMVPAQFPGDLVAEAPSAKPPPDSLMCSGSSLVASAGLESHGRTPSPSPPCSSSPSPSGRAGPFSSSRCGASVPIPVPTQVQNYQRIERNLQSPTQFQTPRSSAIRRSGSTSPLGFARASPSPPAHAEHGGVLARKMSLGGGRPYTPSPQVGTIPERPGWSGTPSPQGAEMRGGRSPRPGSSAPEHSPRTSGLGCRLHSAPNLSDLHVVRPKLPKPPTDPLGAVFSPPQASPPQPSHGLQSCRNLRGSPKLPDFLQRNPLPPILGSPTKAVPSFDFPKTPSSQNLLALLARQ
# Test: ULK1 inhibition assay (ADP Glo)
# Assay type: biochemical
# In short: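 Recombinant ULK1 (2 ug/mL) phosphorylated myelin basic protein (80 ug/mL) at 25 uM ATP; ADP formed was detected by ADP-Glo after 1 h. Compounds ran in triplicate, 16-dose 3-fold serial dilution from 30 uM, to give IC50.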
# [1] = Table 1, 25 uM ATP, MBP substrate, one hour
IC50 [1],SMILES,other results
> 10 nM,CC(C)(C)OC(=O)N1CCc2cc(Nc3ncc([N+](=O)O)c(NC4CC4)n3)ccc2C1 [Compound A21],–
> 10 nM,"COCCN1CCc2cc(Nc3ncc(C(F)(F)F)c(N4CCc5ccccc54)n3)ccc2C1 [Compound A123, N-(4-(Indolin-1-yl)-5-(trifluoromethyl)pyrimidin-2-yl)-2-(2-methoxyethyl)-1,2,3,4-tetra-hydroisoquinolin-6-amine]",–
> 10 nM,O=C(NCC(F)(F)F)c1cnc(Nc2ccc3c(c2)CCNC3)nc1NC1CC1 [Compound A38],–
–,COC(=O)c1ccccc1Oc1nc(Nc2ccc3c(c2)COC3)ncc1Br [Compound B33],IC50 (Table 2): > 1000 nM
–,COC(=O)c1ccccc1Oc1nc(Nc2ccc(O)cc2)ncc1Br [Compound B36],IC50 (Table 2): > 1000 nM
1 to 10 nM,FC(F)(F)c1cnc(Nc2ccc3c(c2)CN(CCN2CCOCC2)CC3)nc1NC1CC1 [Compound A97],–
< 1 nM,CC(C)(C)OC(=O)NCCC(=O)N1CCc2cc(Nc3ncc(C(F)(F)F)c(NC4CC4)n3)ccc2C1 [Compound A29],–
< 1 nM,O=C(O)CCC(=O)N1CCc2cc(Nc3ncc(C(F)(F)F)c(NC4CC4)n3)ccc2C1 [Compound A20],–
> 10 nM,"CNC(=O)c1ccccc1Nc1nc(Nc2ccc3c(c2)C[N+](C)(C)CC3)ncc1Br [Compound A168, 7-[5-Bromo-4-(2-methylcarbamoyl-phenylamino)-pyrimidin-2-ylamino]-2,2-dimethyl-1,2,3,4-tetrahydro-isoquinolinium; iodide]",–
–,COc1cc(Nc2ncc(Br)c(Oc3ccccc3C(=O)NCC(F)(F)F)n2)cc(OC)c1OC [Compound B6],IC50 (Table 2): 100 to 1000 nM
> 10 nM,Nc1ccc(CN2CCc3cc(Nc4ncc(C(F)(F)F)c(NC5CC5)n4)ccc3C2)cc1 [Compound A112],–
> 10 nM,"CNC(=O)c1ccccc1Nc1nc(Nc2ccc3c(c2)CCN(C(=O)[C@@H](N)CO)C3)ncc1Br (racemic) [Compound A139, 2-{2-[2-(2-Amino-3-hydroxy-propionyl)-1,2,3,4-tetrahydro-isoquinolin-6-ylamino]-5-bromo-pyrimidin-4-ylamino}-N-methyl-benzamide]",–
> 10 nM,CC(C)(C)OC(=O)N1CCc2cc(Nc3ncc(N)c(NC4CC4)n3)ccc2C1 [Compound A22],–
> 10 nM,"CNC(=O)c1ccccc1Nc1nc(Nc2ccc3c(c2)CN(Cc2ccc(OC)cc2)CC3)ncc1Br [Compound A158, 2-{5-Bromo-2-[2-(4-methoxy-benzyl)-1,2,3,4-tetrahydro-isoquinolin-7-ylamino]-pyrimidin-4-ylamino}-N-methyl-benzamide]",–
–,"COc1cc(Nc2ncc(Br)c(Oc3ccc(NC(=O)CC(=O)Nc4ccc(F)cc4)cc3F)n2)cc(OC)c1OC [Compound C29, N^1-(4-((5-Bromo-2-((3,4,5-trimethoxyphenyl)amino)pyrimidin-4-yl)oxy)-3-fluorophenyl)-N^3-(4-fluorophenyl)malonamide]",IC50 (Table 3): > 100 nM
> 10 nM,"CNC(=O)c1ccccc1Nc1nc(Nc2ccc3c(c2)CN(CCN)CC3)ncc1Br [Compound A151, 2-{2-[2-(2-Amino-ethyl)-1,2,3,4-tetrahydro-isoquinolin-7-ylamino]-5-bromo-pyrimidin-4-ylamino}-N-methyl-benzamide]",–
–,COC(=O)c1ccccc1Oc1nc(Nc2ccc(C(N)=O)cc2)ncc1Br [Compound B41],IC50 (Table 2): > 1000 nM
–,"CNC(=O)c1ccccc1Nc1cc(C#N)nc(Nc2cc(OC)c(OC)c(OC)c2)n1 [Compound E8, 2-((6-Cyano-2-((3,4,5-trimethoxyphenyl)amino)pyrimidin-4-yl)amino)-N-methylbenzamide]",IC50 (Table 3): > 100 nM
–,"COc1cc(Nc2ncc(Br)c(Nc3ccccc3C(=O)NCC(F)F)n2)cc(OC)c1OC [Compound E22, 2-((5-Bromo-2-((3,4,5-trimethoxyphenyl)amino)pyrimidin-4-yl)amino)-N-(2,2-difluoroethyl)benzamide]",IC50 (Table 3): 5 to 100 nM
> 10 nM,"CNC(=O)c1ccccc1Nc1nc(Nc2ccc3c(c2)CN(C(=O)CCN)CC3)ncc1Br [Compound A155, 2-{2-[2-(3-Amino-propionyl)-1,2,3,4-tetrahydro-isoquinolin-7-ylamino]-5-bromo-pyrimidin-4-ylamino}-N-methyl-benzamide]",–
< 1 nM,FC(F)(F)c1cnc(Nc2ccc3c(c2)CCN(CCS)C3)nc1NC1CC1 [Compound A23],–
1 to 10 nM,FC(F)(F)c1cnc(Nc2ccc3c(c2)CN(C2COC2)CC3)nc1NC1CC1 [Compound A102],–
–,COc1ccc(Nc2ncc(Br)c(Nc3ccccc3CO)n2)cc1 [Compound C5],IC50 (Table 3): 5 to 100 nM
–,"CNC(=O)c1ccccc1Nc1nc(Nc2ccc(N3CCNCC3)cc2)ncc1Br [Compound E24, 2-((5-Bromo-2-((4-(piperazin-1-yl)phenyl)amino)pyrimidin-4-yl)amino)-N-methylbenzamide]",IC50 (Table 3): 5 to 100 nM
–,COc1cc(Nc2ncc(Br)c(Oc3ccccc3C(=O)N(C)CC(C)(C)O)n2)cc(OC)c1OC [Compound B49],IC50 (Table 2): > 1000 nM

IC50 [1],SMILES,other results
> 10 nM,"CNC(=O)c1ccccc1Nc1nc(Nc2ccc3c(c2)CN(Cc2ccccn2)CC3)ncc1Br [Compound A163, 2-[5-Bromo-2-(2-pyridin-2-ylmethyl-1,2,3,4-tetrahydro-isoquinolin-7-ylamino)-pyrimidin-4-ylamino]-N-methyl-benzamide]",–
> 10 nM,"CNC(=O)c1ccccc1Nc1nc(Nc2ccc3c(c2)CN(C)CC3)ncc1Br [Compound A167, 2-[5-Bromo-2-(2-methyl-1,2,3,4-tetrahydro-isoquinolin-7-ylamino)-pyrimidin-4-ylamino]-N-methyl-benzamide]",–
1 to 10 nM,O=C(N1CCOCC1)N1CCc2cc(Nc3ncc(C(F)(F)F)c(NC4CC4)n3)ccc2C1 [Compound A2],–
> 10 nM,NC(=O)CN1CCc2cc(Nc3ncc(C(F)(F)F)c(NC4CC4)n3)ccc2C1 [Compound A39],–
–,COc1cc(Nc2ncc(Br)c(Oc3ccccc3C(=O)N3CCN(C)CC3)n2)cc(OC)c1OC [Compound B44],IC50 (Table 2): > 1000 nM
–,COC(=O)c1ccccc1Oc1nc(Nc2ccc3c(c2)OCO3)ncc1Br [Compound B20],IC50 (Table 2): > 1000 nM
< 1 nM,CN1CCc2cc(Nc3ncc(C(F)(F)F)c(NC4CC4)n3)ccc2C1 [Compound A1],–
–,COc1cc(Nc2ncc(Br)c(Nc3ccccc3SC)n2)cc(OC)c1OC [Compound E3],IC50 (Table 3): 5 to 100 nM
< 1 nM,CC(=O)CCN1CCc2cc(Nc3ncc(C(F)(F)F)c(NC4CC4)n3)ccc2C1 [Compound A56],–
1 to 10 nM,FC(F)(F)c1cnc(Nc2ccc3c(c2)CCN(C2COC2)C3)nc1NC1CC1 [Compound A9],–
> 10 nM,"CNC(=O)c1ccccc1Oc1nc(Nc2ccc3c(c2)CCN(CCOC)C3)ncc1C(F)(F)F [Compound A121, 2-((2-((2-(2-Methoxyethyl)-1,2,3,4-tetrahydroisoquinolin-6-yl)amino)-5-(trifluoromethyl)pyrimidin-4-yl)oxy)-N-methylbenzamide]",–
> 10 nM,"CNC(=O)c1ccccc1Nc1nc(Nc2ccc3c(c2)CNCC3)ncc1Br [Compound A147, 2-[5-Bromo-2-(1,2,3,4-tetrahydro-isoquinolin-7-ylamino)-pyrimidin-4-ylamino]-N-methyl-benzamide]",–
–,COC(=O)c1ccccc1Oc1nc(Nc2ccc(N(C)C)cc2)ncc1Br [Compound B24],IC50 (Table 2): 100 to 1000 nM
–,COC(=O)c1ccccc1Oc1nc(Nc2cccc(C(N)=O)c2)ncc1Br [Compound B21],IC50 (Table 2): > 1000 nM
–,"CNC(=O)c1cccc(Nc2nc(Nc3cc(OC)c(OC)c(OC)c3)ncc2Br)c1 [Compound E26, 3-((5-Bromo-2-((3,4,5-trimethoxyphenyl)amino)pyrimidin-4-yl)amino)-N-methylbenzamide]",IC50 (Table 3): > 100 nM
> 10 nM,"CNC(=O)c1ccccc1Nc1nc(Nc2ccc3c(c2)CCN(CCC(=O)O)C3)ncc1Br [Compound A141, 3-{6-[5-Bromo-4-(2-methylcarbamoyl-phenylamino)-pyrimidin-2-ylamino]-3,4-dihydro-1H-isoquinolin-2-yl}-propionic acid]",–
< 1 nM,FC(F)(F)c1cnc(Nc2ccc3c(c2)CN(CCS)CC3)nc1NC1CC1 [Compound A78],–
> 10 nM,"CNC(=O)c1ccccc1Nc1nc(Nc2ccc3c(c2)CCN(C(=O)CCC(=O)O)C3)ncc1Br [Compound A134, 4-{6-[5-Bromo-4-(2-methylcarbamoyl-phenylamino)-pyrimidin-2-ylamino]-3,4-dihydro-1H-isoquinolin-2-yl}-4-oxo-butyric acid]",–
< 1 nM,OCCN1CCc2cc(Nc3ncc(C(F)(F)F)c(NC4CC4)n3)ccc2C1 [Compound A53],–
–,CN(C)Cc1ccc(Nc2ncc(C(F)(F)F)c(NC3CC3)n2)cc1 [Compound D4],IC50 (Table 3): < 5 nM
–,COc1cc(Oc2ncc(Br)c(Nc3ccccc3CO)n2)cc(OC)c1OC [Compound C10],IC50 (Table 3): > 100 nM
1 to 10 nM,CS(=O)(=O)CCN1CCc2cc(Nc3ncc(C(F)(F)F)c(NC4CC4)n3)ccc2C1 [Compound A91],–
> 10 nM,FC(F)(F)c1cnc(Nc2ccc3c(c2)CN(CC2CCNC2)CC3)nc1NC1CC1 (stereo not shown) [Compound A107],–
1 to 10 nM,OCCN1CCc2ccc(Nc3ncc(C(F)(F)F)c(NC4CC4)n3)cc2C1 [Compound A106],–

# Source: patent publication US20230135635A1, “INHIBITORS OF ULK1/2 AND METHODS OF USING SAME” (SALK INSTITUTE FOR BIOLOGICAL STUDIES, priority 2020, published 2023)
